For test [1], the target named is Src enzyme (Homo sapiens (Human), UniProt P12931). The test is described as follows: Src enzyme activity (IMAP fluorescence polarization assay). To be noted: read-out: EC50 Src activity values; IMAP, 60 min pre-incubation, 4 μM ATP. (In fluorescence polarisation assays a small probe gives low polarisation when free and higher when bound to something large.)
Test [2] deals with FynT enzyme (Homo sapiens (Human), UniProt P06241). Nature of the test: FynT enzyme activity (IMAP fluorescence polarization assay). Format: biochemical. To be noted: 60 min pre-incubation, 0.2 μM ATP. The gist of the method: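 Human FynT pre-incubated with compounds 60 min at room temperature, then reacted 2 h at room temperature with fluorescein-labelled p34cdc2 peptide (100 nM final). Stopped with IMAP binding solution; fluorescence polarization read after 60 min. Activity as % of ±ATP control difference; EC50 by curve fitting.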
Chain of FynT enzyme (P06241 other isoform, or with tags, fused parts or gaps): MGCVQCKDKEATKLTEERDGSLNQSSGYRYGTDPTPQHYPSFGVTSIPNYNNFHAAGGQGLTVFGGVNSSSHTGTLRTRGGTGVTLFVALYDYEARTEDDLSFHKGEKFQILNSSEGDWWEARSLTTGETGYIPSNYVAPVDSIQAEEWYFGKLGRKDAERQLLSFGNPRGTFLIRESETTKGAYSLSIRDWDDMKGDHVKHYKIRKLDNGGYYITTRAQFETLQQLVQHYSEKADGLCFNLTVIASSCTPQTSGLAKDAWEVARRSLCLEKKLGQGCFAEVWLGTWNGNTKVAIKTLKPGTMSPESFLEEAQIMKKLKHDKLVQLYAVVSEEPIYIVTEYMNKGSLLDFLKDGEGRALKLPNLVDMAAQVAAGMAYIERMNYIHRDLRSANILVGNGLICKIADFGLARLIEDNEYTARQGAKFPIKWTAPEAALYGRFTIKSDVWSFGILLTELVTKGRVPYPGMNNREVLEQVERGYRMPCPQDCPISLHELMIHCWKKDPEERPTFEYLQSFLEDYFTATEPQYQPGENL

Test [3] has as its target Lck enzyme (Homo sapiens (Human), UniProt P06239). The test is described as follows: Lck enzyme activity (IMAP fluorescence polarization assay).
For test [4], the target named is Btk enzyme (His-Btk) (Homo sapiens (Human), UniProt Q06187). Nature of the test: Btk enzyme activity (IMAP fluorescence polarization assay).
Chain of Btk enzyme (His-Btk) (Q06187 whole entry): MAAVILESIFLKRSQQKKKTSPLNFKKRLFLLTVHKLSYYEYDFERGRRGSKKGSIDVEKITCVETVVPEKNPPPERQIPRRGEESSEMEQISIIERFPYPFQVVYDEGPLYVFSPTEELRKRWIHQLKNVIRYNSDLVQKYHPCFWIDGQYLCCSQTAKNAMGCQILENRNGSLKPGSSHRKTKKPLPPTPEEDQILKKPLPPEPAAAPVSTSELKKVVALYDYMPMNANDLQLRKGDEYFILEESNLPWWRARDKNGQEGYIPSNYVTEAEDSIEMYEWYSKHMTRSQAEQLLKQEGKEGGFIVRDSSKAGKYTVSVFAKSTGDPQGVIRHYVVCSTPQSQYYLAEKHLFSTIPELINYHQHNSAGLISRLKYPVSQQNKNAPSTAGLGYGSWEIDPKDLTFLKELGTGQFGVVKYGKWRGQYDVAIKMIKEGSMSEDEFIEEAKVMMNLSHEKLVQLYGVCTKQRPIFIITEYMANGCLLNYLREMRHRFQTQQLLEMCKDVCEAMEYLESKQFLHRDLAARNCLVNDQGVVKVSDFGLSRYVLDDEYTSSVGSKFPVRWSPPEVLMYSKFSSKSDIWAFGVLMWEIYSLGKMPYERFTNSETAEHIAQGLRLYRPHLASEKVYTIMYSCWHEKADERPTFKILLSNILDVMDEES
For test [5], the target named is Lyn enzyme (Homo sapiens (Human), UniProt P07948). Nature of the test: Lyn enzyme activity (IMAP fluorescence polarization assay).
Chain of Lyn enzyme (P07948 whole entry): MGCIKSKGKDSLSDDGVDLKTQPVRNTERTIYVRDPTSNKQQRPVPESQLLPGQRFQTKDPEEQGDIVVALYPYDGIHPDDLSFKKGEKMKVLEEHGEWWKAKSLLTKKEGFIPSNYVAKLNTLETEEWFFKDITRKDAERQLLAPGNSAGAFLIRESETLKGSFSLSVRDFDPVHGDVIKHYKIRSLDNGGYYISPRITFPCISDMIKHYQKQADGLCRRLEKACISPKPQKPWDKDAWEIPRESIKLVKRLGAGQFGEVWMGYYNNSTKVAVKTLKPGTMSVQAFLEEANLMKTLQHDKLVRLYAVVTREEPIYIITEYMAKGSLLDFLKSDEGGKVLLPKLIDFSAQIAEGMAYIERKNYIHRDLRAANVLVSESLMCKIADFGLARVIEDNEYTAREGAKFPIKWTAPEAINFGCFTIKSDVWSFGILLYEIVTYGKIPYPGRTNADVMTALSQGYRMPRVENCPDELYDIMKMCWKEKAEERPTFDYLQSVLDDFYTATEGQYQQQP
[6] abbreviates: read-out: EC50 Lck activity values, IMAP, 60 min pre-incubation, 6 μM ATP, bin bound in μM.
Where [7] appears, read: IMAP, 60 min pre-incubation, 5 μM ATP, bin bound in nM.
The mark [8] stands for this setting: read-out: EC50 Lyn activity values, 60 min pre-incubation, 2 μM ATP, bin bound in μM.
Setting [9] is: read-out: EC50 Btk activity values, IMAP, 60 min pre-incubation, 5 μM ATP, bin bound in nM.
Where [10] appears, read: IMAP, 60 min pre-incubation, 5 μM ATP, bin bound in μM.

The values below come from patent publication US9758524B2, “4-imidazopyridazin-1-yl-benzamides as Btk inhibitors” (Merck Sharp & Dohme B.V., priority 2011, dated 2017).

One may read the EC50 as the concentration needed to bring the measured effect to its halfway point.

Each structure is given as a SMILES string. Read-outs that look alike come from different tables or passages of the source.

Chain of Src enzyme (P12931 whole entry, looked up): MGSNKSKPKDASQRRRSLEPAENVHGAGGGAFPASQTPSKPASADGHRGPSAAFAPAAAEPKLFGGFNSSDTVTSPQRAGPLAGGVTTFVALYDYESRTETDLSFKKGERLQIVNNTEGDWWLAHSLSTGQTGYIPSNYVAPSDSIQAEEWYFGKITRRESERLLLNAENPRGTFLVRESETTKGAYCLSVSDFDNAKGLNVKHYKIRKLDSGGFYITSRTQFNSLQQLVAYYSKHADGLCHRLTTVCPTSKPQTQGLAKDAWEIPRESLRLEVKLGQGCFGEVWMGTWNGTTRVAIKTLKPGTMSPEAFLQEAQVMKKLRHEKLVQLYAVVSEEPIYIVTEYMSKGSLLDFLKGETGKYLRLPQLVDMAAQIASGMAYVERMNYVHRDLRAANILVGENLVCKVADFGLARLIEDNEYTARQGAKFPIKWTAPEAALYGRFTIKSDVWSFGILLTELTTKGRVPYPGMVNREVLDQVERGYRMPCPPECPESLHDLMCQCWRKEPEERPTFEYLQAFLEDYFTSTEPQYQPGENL
Chain of Lck enzyme (P06239 whole entry): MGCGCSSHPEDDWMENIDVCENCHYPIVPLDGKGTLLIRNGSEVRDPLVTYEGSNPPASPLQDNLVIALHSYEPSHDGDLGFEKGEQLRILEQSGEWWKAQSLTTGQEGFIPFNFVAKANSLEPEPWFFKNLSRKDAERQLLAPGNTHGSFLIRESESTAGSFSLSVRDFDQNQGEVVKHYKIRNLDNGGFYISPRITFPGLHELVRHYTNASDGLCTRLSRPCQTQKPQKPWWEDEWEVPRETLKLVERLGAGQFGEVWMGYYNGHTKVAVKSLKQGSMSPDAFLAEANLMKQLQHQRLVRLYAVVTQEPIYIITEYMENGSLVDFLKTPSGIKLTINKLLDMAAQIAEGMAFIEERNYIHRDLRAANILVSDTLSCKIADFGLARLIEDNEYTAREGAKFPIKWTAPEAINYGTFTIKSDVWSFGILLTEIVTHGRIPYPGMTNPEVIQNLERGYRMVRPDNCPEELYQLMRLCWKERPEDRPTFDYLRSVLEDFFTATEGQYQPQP

As for `COC/C=C/C(=O)N1CCC[C@H]1c1nc(-c2ccc(C(=O)Nc3cc(C)ccn3)cc2)c2c(N)nccn12` [Example 57, (S,E)-4-(8-amino-3-(1-(4-methoxybut-2-enoyl)pyrrolidin-2-yl)imidazo[1,5-a]pyrazin-1-yl)-N-(4-methylpyridin-2-yl)benzamide], the EC50 in test [1] was not below 1000 nM; in test [2], not below 1000 nM; in test [3] (setting [6]), not below 1 µM; in test [4] it was 10 to 100 nM; in test [5] (setting [8]), not below 1 µM. Also, the “EC50 Btk activity values” in test [4] (setting [7]) is given as less than 100 nM.
For `C=CS(=O)(=O)N1CCCC[C@H]1c1nc(-c2ccc(C(=O)Nc3cc(CCC)ccn3)cc2)c2c(N)nccn12` [Example 49, (S)-4-(8-amino-3-(1-(vinylsulfonyl)piperidin-2-yl)imidazo[1,5-a]pyrazin-1-yl)-N-(4-propylpyridin-2-yl)benzamide], the 50% effective concentration (EC50) was not below 1000 nM in test [1]; not below 1000 nM in test [2]; not below 1 µM in test [3] (setting [6]); less than 10 nM in test [4] (setting [9]); not below 1 µM in test [5] (setting [8]).
`CC#CC(=O)N(C)[C@@H](C)c1nc(-c2ccc(C(=O)Nc3cc(CCC)ccn3)cc2)c2c(N)nccn12` [Example 113, (S)-4-(8-amino-3-(1-(N-methylbut-2-ynamido)ethyl)imidazo[1,5-a]pyrazin-1-yl)-N-(4-propylpyridin-2-yl)benzamide]: the EC50 in test [1] was not below 1000 nM; in test [2], not below 1000 nM; in test [3] (setting [6]) it was not below 1 µM; in test [4], 10 to 100 nM; in test [5] (setting [8]) it was not below 1 µM. The “EC50 Btk activity values” in test [4] (setting [7]) was less than 100 nM.
`C=CC(=O)N1CCCC[C@H]1c1nc(-c2ccc(C(=O)Nc3ccccn3)cc2C)c2c(N)nccn12` [Example 68, 4-(3-((S)-1-acryloylpiperidin-2-yl)-8-aminoimidazo[1,5-a]pyrazin-1-yl)-3-methyl-N-(pyridin-2-yl)benzamide]: the EC50 in test [1] was not below 1000 nM; in test [2], not below 1000 nM; in test [3] (setting [6]) it was not below 1 µM; in test [4], 100 to 1000 nM; in test [5] (setting [8]), not below 1 µM. Also, in test [4] (setting [10]), the “EC50 Btk activity values” was less than 1000 nM.
Regarding `CCCC#CC(=O)N1CCC[C@H]1c1nc(-c2ccc(C(=O)Nc3ccccn3)cc2)c2c(N)nccn12` [Example 36, (S)-4-(8-Amino-3-(1-hex-2-ynoylpyrrolidin-2-yl)imidazo[1,5-a]pyrazin-1-yl)-N-(pyridin-2-yl)benzamide], the half-maximal effective concentration (EC50) was not below 1000 nM in test [1]; not below 1000 nM in test [2]; not below 1 µM in test [3] (setting [6]); less than 10 nM in test [4] (setting [9]); not below 1 µM in test [5] (setting [8]).
Regarding `C=CC(=O)N1CCC[C@H]1c1nc(-c2ccc(C(=O)Nc3cc(CCC)ccn3)cc2)c2c(N)nccn12` [Example 125, (S)-4-(3-(1-acryloylpyrrolidin-2-yl)-8-aminoimidazo[1,5-a]pyrazin-1-yl)-N-(4-propylpyridin-2-yl)benzamide], the EC50 in test [1] is not below 1000 nM; in test [2] it was not below 1000 nM; in test [3] it was 0.1 to 1 µM; in test [4] (setting [9]), less than 10 nM; in test [5] (EC50 Lyn activity values, 60 min pre-incubation, 2 μM ATP, bin bound in nM), 0.1 to 1 µM. Also, in test [3] (IMAP, 60 min pre-incubation, 6 μM ATP, bin bound in μM), the “EC50 Lck activity values” is less than 1 µM. Besides, the “EC50 Lyn activity values” in test [5] (60 min pre-incubation, 2 μM ATP, bin bound in μM) is less than 1 µM.
With `N#CCN1CCC[C@H]1c1nc(-c2ccc(C(=O)Nc3ccccn3)cc2)c2c(N)nccn12` [Example 94, (S)-4-(8-amino-3-(1-(cyanomethyl)pyrrolidin-2-yl)imidazo[1,5-a]pyrazin-1-yl)-N-(pyridin-2-yl)benzamide], the EC50 in test [1] was not below 1000 nM; in test [2], not below 1000 nM; in test [3] (setting [6]), not below 1 µM; in test [4], 100 to 1000 nM; in test [5] (setting [8]), not below 1 µM. Moreover, the “EC50 Btk activity values” in test [4] (setting [10]) is less than 1000 nM.
For `C=CC(=O)N[C@@H](C)c1nc(-c2ccc(C(=O)Nc3ccccn3)cc2)c2c(N)nccn12` [Example 100, (S)-4-(3-(1-acrylamidoethyl)-8-aminoimidazo[1,5-a]pyrazin-1-yl)-N-(pyridin-2-yl)benzamide], the EC50 in test [1] is not below 1000 nM; in test [2] it was not below 1000 nM; in test [3] (setting [6]), not below 1 µM; in test [4] (setting [9]), less than 10 nM; in test [5] (setting [8]), not below 1 µM.
Regarding `CC#CC(=O)N1CCCC[C@H]1c1nc(-c2ccc(C(=O)Nc3cc(CCC)ccn3)c(OC)c2)c2c(N)nccn12` [Example 110, (S)-4-(8-amino-3-(1-but-2-ynoylpiperidin-2-yl)imidazo[1,5-a]pyrazin-1-yl)-2-methoxy-N-(4-propylpyridin-2-yl)benzamide], the EC50 in test [1] was not below 1000 nM; in test [2], not below 1000 nM; in test [3] (setting [6]), not below 1 µM; in test [4] (setting [9]), less than 10 nM; in test [5] (setting [8]), not below 1 µM.
With `COC/C=C/C(=O)N1CCC[C@H]1c1nc(-c2ccc(C(=O)Nc3cc(F)ccn3)cc2)c2c(N)nccn12` [Example 53, (S,E)-4-(8-amino-3-(1-(4-methoxybut-2-enoyl)pyrrolidin-2-yl)imidazo[1,5-a]pyrazin-1-yl)-N-(4-fluoropyridin-2-yl)benzamide], the half-maximal effective concentration (EC50) was not below 1000 nM in test [1]; not below 1000 nM in test [2]; not below 1 µM in test [3] (setting [6]); 100 to 1000 nM in test [4]; not below 1 µM in test [5] (setting [8]). Also, the “EC50 Btk activity values” in test [4] (setting [10]) is less than 1000 nM.
`CCCc1ccnc(NC(=O)c2ccc(-c3nc([C@@H]4CCCN4C(=O)/C=C/COC)n4ccnc(N)c34)c(C)c2)c1` [Example 87, 4-(8-amino-3-((S)-1-((E)-4-methoxybut-2-enoyl)pyrrolidin-2-yl)imidazo[1,5-a]pyrazin-1-yl)-3-methyl-N-(4-propylpyridin-2-yl)benzamide]: the EC50 in test [1] was not below 1000 nM; in test [2], not below 1000 nM; in test [3] (setting [6]), not below 1 µM; in test [4], 100 to 1000 nM; in test [5] (setting [8]) it was not below 1 µM. The “EC50 Btk activity values” in test [4] (setting [10]) is less than 1000 nM.
In the case of `COC/C=C/C(=O)N1CCCC[C@H]1c1nc(-c2ccc(C(=O)Nc3ccncn3)cc2)c2c(N)nccn12` [Example 86, (S,E)-4-(8-amino-3-(1-(4-methoxybut-2-enoyl)piperidin-2-yl)imidazo[1,5-a]pyrazin-1-yl)-N-(pyrimidin-4-yl)benzamide], the EC50 is not below 1000 nM in test [1]; not below 1000 nM in test [2]; not below 1 µM in test [3] (setting [6]); 100 to 1000 nM in test [4]; not below 1 µM in test [5] (setting [8]). In addition, the “EC50 Btk activity values” in test [4] (setting [10]) was less than 1000 nM.
Take `COC/C=C/C(=O)N1CCCC[C@H]1c1nc(-c2ccc(C(=O)Nc3cc(F)ccn3)cc2)c2c(N)nccn12` [Example 81, (S,E)-4-(8-amino-3-(1-(4-methoxybut-2-enoyl)piperidin-2-yl)imidazo[1,5-a]pyrazin-1-yl)-N-(4-fluoropyridin-2-yl)benzamide]: the EC50 in test [1] was not below 1000 nM; in test [2] it was not below 1000 nM; in test [3] (setting [6]), not below 1 µM; in test [4] it was 10 to 100 nM; in test [5] (setting [8]) it was not below 1 µM. The “EC50 Btk activity values” in test [4] (setting [7]) is less than 100 nM.
In the case of `C=CC(=O)N1CCCC[C@H]1c1nc(-c2ccc(C(=O)Nc3cc(C#N)ccn3)cc2)c2c(N)nccn12` [Example 18, (S)-4-(3-(1-Acryloylpiperidin-2-yl)-8-aminoimidazo[1,5-a]pyrazin-1-yl)-N-(4-cyanopyridin-2-yl)benzamide], the half-maximal effective concentration (EC50) in test [1] is not below 1000 nM; in test [2] it was not below 1000 nM; in test [3] (setting [6]), not below 1 µM; in test [4] (setting [9]) it was less than 10 nM; in test [5] (setting [8]) it was not below 1 µM.
